Test results taken from patent EP2949653A1, “ISOXAZOLE DERIVATIVES AS LEUKOTRIENE BIOSYNTHESIS INHIBITORS” (Banoglu, Erden, priority 2014, dated 2015).
Where two headings read alike, the source gives them in different places.

Assays:
purified 5-LO [1] = molecular target: T1, purified 5-LO (Homo sapiens, UniProt P09917); test: Purified / human recombinant 5-LO activity (cell-free); format: biochemical; settings: remaining 5-LO activity (percentage of uninhibited control) at 30 µM test compound
T1 sequence (P09917 1-674): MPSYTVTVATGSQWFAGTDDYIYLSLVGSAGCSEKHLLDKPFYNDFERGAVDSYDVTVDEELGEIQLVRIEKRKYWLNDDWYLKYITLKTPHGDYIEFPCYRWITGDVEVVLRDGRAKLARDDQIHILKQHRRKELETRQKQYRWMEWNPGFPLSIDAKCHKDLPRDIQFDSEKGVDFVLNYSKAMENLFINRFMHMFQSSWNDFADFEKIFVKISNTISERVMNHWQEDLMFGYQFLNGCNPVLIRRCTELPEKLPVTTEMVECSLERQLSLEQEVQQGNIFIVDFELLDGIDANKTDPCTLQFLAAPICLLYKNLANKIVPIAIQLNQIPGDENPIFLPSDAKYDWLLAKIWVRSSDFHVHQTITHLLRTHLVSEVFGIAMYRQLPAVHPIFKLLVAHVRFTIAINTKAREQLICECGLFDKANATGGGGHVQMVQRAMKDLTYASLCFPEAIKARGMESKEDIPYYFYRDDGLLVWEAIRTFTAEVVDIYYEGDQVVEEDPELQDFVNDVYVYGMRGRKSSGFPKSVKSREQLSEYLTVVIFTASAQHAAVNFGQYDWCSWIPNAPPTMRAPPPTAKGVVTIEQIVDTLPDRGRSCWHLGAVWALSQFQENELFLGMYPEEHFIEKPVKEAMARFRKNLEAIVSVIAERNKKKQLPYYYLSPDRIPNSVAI

[2] = tested on: 5-LO mediated product formation; test: 5-LO mediated product formation in intact neutrophils stimulated with A23187 (cell-based); set-up: species or system human; settings: for IC50: Neutrophil, intact human neutrophils stimulated with 2.5 µM A23187, mean ± SE, n = 3-4, read-out: Inhibition of purified 5-LO activity IC50 (µM) cell based; for activity at 1 µM / activity at 10 µM: PMNL, human neutrophils, 2.5 µM A23187, means ± SE, n = 3-6; for activity at 1 µM: remaining activity at 1 µM inhibitor, read-out: 5-LO mediated product formation in intact neutrophils (PMNL) (% of control) at 1 µM; for activity at 10 µM: remaining activity at 10 µM inhibitor, read-out: 5-LO mediated product formation in intact neutrophils (PMNL) (% of control) at 10 µM
Method: (§1) Cell based and cell-free assays carried out in biological studies, immunofluorescence microscopy analysis and zymosan-induced peritonitis in mice are performed as described hereinabove (Pegola, C. and et al., British J. Pharmacology, 2014, D01:10.1111/bph.12625). In the cell based assays (intact neutrophils or monocytes), 5-LO mediated product formation is started, after pre-incubation with test compounds (or control DMSO) for 15 min. at 37 °C, with addition of Ca-ionophore A23187 (2.5 µM) to the fresh 5 x 10^6 neutrophils or monocytes suspended in 1 ml of PGC buffer (phosphate buffered saline (PBS) solution containing 1 mg ml^-1 glucose and 1mM CaCl2, pH 7.4). After the incubation for 10 min. at 37 °C, the reaction is ended with addition of 1 ml of methanol, and 30 µL 1 N HCl, 200 ng prostaglandin B1 and 500 µL PBS are added to the mixture. In cell-free assays (isolated 5-LO and cell homogenates), human recombinant 5-LO protein or 40,000g supernatant is added to 1 ml of 5-LO reaction mixture (PBS, pH 7.4, 1 mM EDTA, 1 mM ATP), and then incubated with test compounds (or control DMSO) for 10 min. at 4°C, heated to 37 °C and 2 mM CaCl2 as well as AA at certain concentrations are added. The reaction is ended as described for the cell-based assays. Resulting 5-LO mediated products are extracted and analysed by the known method of high pressure liquid chromatography (HPLC) (Pergola, C. Proc Natl. Acad. Sci. U.S.A. 2008, 105, 19881). 5-LO mediated product formation (LTB4 and all trans isomers, and 5 (S)-hydro(pero)xy-6-trans-8, 11, 14-cis-eicosatetraenoic acid, 5-H(p)ETE) is expressed as ng per 10^6 cell. Cysteinyl-LTs have not been analyzed because that the amount of C4, D4 and E4 and LTB4 oxidation products are below the detection limit.
(§2) Compounds were tested in intact human neutrophils stimulated with 2.5 µM A23187 under cell based conditions and on purified 5-LO under cell free conditions. ^aData are given as remaining activity as a percentage of control (100%) at 10 µM or 1 µM inhibitor concentrations (means ± SE, n = 3-6).
Compound 9hj inhibited 5-LO mediated product formation with IC50 of 60 nM in human neutrophils. Neutrophils are stimulated with Ca-ionophore A23187 (2.5 µM), without the addition of exogenous arachidonic acid (AA), after pre-incubation with 9hj or vehicle (0.1 % DMSO). 100% controls correspond to 275.7 ng mL^-1 of 5-LO mediated products (Figure 1).
100% controls correspond to 328.97 ng mL^-1 of 5-LO mediated products.

purified 5-LO [3] = molecular target: T1, purified 5-LO; test: Purified / human recombinant 5-LO activity (cell-free); format: biochemical; settings: purified 5-LO under cell free conditions; mean ± SE, n = 3-4; read-out: Inhibition of purified 5-LO activity IC50 (µM) cell-free
Method: as §1, §2
9hj was added 15 min before addition of 2 mM Ca^2+ plus 3 µM, 10 µM and 30 µM AA. 100% controls correspond to 200.35 ng mL^-1 for 3 µM AA, 514.36 ng mL^-1 for 10 µM AA and 537.73 ng mL^-1 for 30 µM AA.

purified 5-LO [4] = molecular target: T1, purified 5-LO; settings: literature value, Banoglu et al. Bioorg. Med. Chem. 2012, 20, 3728; read-out: IC50cell-free; cited from earlier work
[5] = tested on: 5-LO mediated product formation; settings: literature value, Banoglu et al. Bioorg. Med. Chem. 2012, 20, 3728; read-out: IC50PMNL (cell-based assay); cited from earlier work

remaining activity at 30 µM (purified 5-LO [1]) [%] | IC50 [2] [µM] | IC50 (purified 5-LO [3]) [µM] | SMILES | activity at 1 µM [2] [%] | activity at 10 µM [2] [%] | IC50 (purified 5-LO [4]) [µM] | IC50 [5] [µM]
73 | 1.81 ± 0.11 | > 30 | Cc1cc(OCc2ccccn2)ccc1-c1onc(C(=O)O)c1-c1ccc(Cl)cc1 [Compound 9gk, 4-(4-Chlorophenyl)-5-(2-methyl-4-(pyridin-2-ylmethoxy)phenyl)isoxazole-3-carboxylic acid] | 73.2 ± 7.42 | 0.45 ± 0.45 | – | –
75 | 9.07 ± 1.98 | > 30 | Cc1cc(OCc2ccc3ccccc3n2)ccc1-c1onc(C(=O)O)c1-c1ccc(Cl)cc1 [Compound 9hk, 4-(4-Chlorophenyl)-5-(2-methyl-4-(quinolin-2-ylmethoxy)phenyl)isoxazole-3-carboxylic acid] | 69.1 ± 5.53 | 44.2 ± 15.7 | – | –
– | 4.42 ± 1.13 | 1.9 ± 0.46 | Cc1ccccc1COc1ccc(-c2onc(C)c2-c2ccc(Cl)cc2)c(O)c1 [Compound A, reference compound] | 66.7 ± 11.5 | 3 ± 0.7 | 1.9 | 4.4
